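At the GI50, growth is halved. The concentration for full growth arrest is given as TGI.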
Tests used:
Experiment in all cases: NCI-60 cell line screen, 384-well format
NCI-H23 lung = tested on: NCI-H23 lung
NCI-H322M lung = tested on: NCI-H322M lung
NCI-H460 NSCLC = tested on: NCI-H460 NSCLC
NCI-H522 lung = tested on: NCI-H522 lung
NCI/ADR-RES ovarian = tested on: NCI/ADR-RES ovarian
OVCAR-3 ovarian = tested on: OVCAR-3 ovarian
OVCAR-4 ovarian = tested on: OVCAR-4 ovarian
OVCAR-5 ovarian = tested on: OVCAR-5 ovarian
PC-3 prostate = tested on: PC-3 prostate
RPMI-8226 leukemia = tested on: RPMI-8226 leukemia
RXF 393 renal = tested on: RXF 393 renal
SF-268 CNS = tested on: SF-268 CNS
SF-295 CNS = tested on: SF-295 CNS
SF-539 CNS = tested on: SF-539 CNS
SK-MEL-2 melanoma = tested on: SK-MEL-2 melanoma
SK-MEL-28 melanoma = tested on: SK-MEL-28 melanoma
SK-MEL-5 melanoma = tested on: SK-MEL-5 melanoma
SK-OV-3 ovarian = tested on: SK-OV-3 ovarian
SN12C renal = tested on: SN12C renal
SNB-19 CNS = tested on: SNB-19 CNS
SNB-75 CNS = tested on: SNB-75 CNS
SW-620 colon = tested on: SW-620 colon
T-47D breast = tested on: T-47D breast
TK-10 renal = tested on: TK-10 renal
U251 glioblastoma = tested on: U251 glioblastoma
UACC-257 melanoma = tested on: UACC-257 melanoma
UACC-62 melanoma = tested on: UACC-62 melanoma
UO-31 renal = tested on: UO-31 renal

Structure (SMILES): CO[C@@H](C(=O)N1Cc2[nH]nc(NC(=O)c3ccc(N4CCN(C)CC4)cc3)c2C1)c1ccccc1
- GI50 (NCI-H23 lung): 0.822 µM
- TGI (NCI-H23 lung): 12.9 µM
- GI50 (NCI-H322M lung): 3.17 µM
- TGI (NCI-H322M lung): 16.7 µM
- GI50 (NCI-H460 NSCLC): 0.0885 µM
- TGI (NCI-H460 NSCLC): 1.26 µM
- GI50 (NCI-H522 lung): 0.0346 µM
- TGI (NCI-H522 lung): 0.561 µM
- GI50 (NCI/ADR-RES ovarian): > 100 µM
- TGI (NCI/ADR-RES ovarian): > 100 µM
- GI50 (OVCAR-3 ovarian): 0.113 µM
- TGI (OVCAR-3 ovarian): 2.64 µM
- GI50 (OVCAR-4 ovarian): 0.566 µM
- TGI (OVCAR-4 ovarian): 23.9 µM
- GI50 (OVCAR-5 ovarian): 1.7 µM
- TGI (OVCAR-5 ovarian): 9.22 µM
- GI50 (PC-3 prostate): 1.63 µM
- TGI (PC-3 prostate): 48.6 µM
- GI50 (RPMI-8226 leukemia): 0.327 µM
- TGI (RPMI-8226 leukemia): 1.46 µM
- GI50 (RXF 393 renal): 0.334 µM
- TGI (RXF 393 renal): 2.04 µM
- GI50 (SF-268 CNS): 1.02 µM
- TGI (SF-268 CNS): 2.69 µM
- GI50 (SF-295 CNS): 1.7 µM
- TGI (SF-295 CNS): 54.4 µM
- GI50 (SF-539 CNS): 0.237 µM
- TGI (SF-539 CNS): 1.42 µM
- GI50 (SK-MEL-2 melanoma): 15.5 µM
- TGI (SK-MEL-2 melanoma): 29.1 µM
- GI50 (SK-MEL-28 melanoma): 2.67 µM
- TGI (SK-MEL-28 melanoma): 18.7 µM
- GI50 (SK-MEL-5 melanoma): 11.2 µM
- TGI (SK-MEL-5 melanoma): 24.6 µM
- GI50 (SK-OV-3 ovarian): 0.899 µM
- TGI (SK-OV-3 ovarian): 12.5 µM
- GI50 (SN12C renal): 0.737 µM
- TGI (SN12C renal): 3.53 µM
- GI50 (SNB-19 CNS): 2.29 µM
- TGI (SNB-19 CNS): > 100 µM
- GI50 (SNB-75 CNS): 0.769 µM
- TGI (SNB-75 CNS): 2.09 µM
- GI50 (SW-620 colon): 0.848 µM
- TGI (SW-620 colon): 13 µM
- GI50 (T-47D breast): 9.18 µM
- TGI (T-47D breast): 28 µM
- GI50 (TK-10 renal): 1.59 µM
- TGI (TK-10 renal): 17.8 µM
- GI50 (U251 glioblastoma): 1.71 µM
- TGI (U251 glioblastoma): 16.9 µM
- GI50 (UACC-257 melanoma): 13.1 µM
- TGI (UACC-257 melanoma): 26.4 µM
- GI50 (UACC-62 melanoma): 0.561 µM
- TGI (UACC-62 melanoma): 20.1 µM
- GI50 (UO-31 renal): 11 µM
- TGI (UO-31 renal): 25.4 µM

From PubChem BioAssay (NCI)
